Measurements from patent publication US9855230B2 (ViiV Healthcare UK (No. 5) Limited, priority 2014, dated 2018).
Counter-ions that a name gives are not always drawn. Like-named read-outs stand apart in the source and are kept apart here.

Columns and labels:
[1] = system: recombinant NL4-3 virus (nef section replaced with Renilla luciferase gene) in MT-2 cells; assay: whole plant or invertebrate; format: cell-based, HIV; conditions: NL43, luciferase activity in MT-2 cells infected 4-5 days with recombinant NL4-3 virus
In short: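 Nef-deleted NL4-3 reporter virus carrying Renilla luciferase was used to infect MT-2 cells in the presence of serial compound dilutions. After 4-5 days of infection, antiviral activity was quantified from luciferase activity using a live-cell substrate.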

[2] = Compound cytotoxicity (CC50), XTT-based colorimetric assay; format: cell-based; conditions: human; uninfected MT2 cells, day 4, XTT assay
In short: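 Run under the antiviral-assay protocol but without virus. Viability was read on day 4 and CC50 values were derived from the readout.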

Structure (SMILES) | EC50 ([1]; read-out: Activity) | CC50 at 4 day [2] | EC50 ([1]; read-out: EC50)
Cc1ccccc1S(=O)(=O)NC(=O)NC(Cc1ccccc1)c1ncccc1-c1ccc(F)c(C(N)=O)c1 (centres unmarked) [Example 98, 2-fluoro-5-(2-(2-phenyl-1-(3-(o-tolylsulfonyl)ureido)ethyl)pyridin-3-yl)benzamide, TFA] | 0.1 to 1 µM | > 33 µM | –
Cc1ccccc1S(=O)(=O)NC(=O)N[C@@H](Cc1cc(F)cc(F)c1)c1ncccc1-c1ccc2ccncc2c1 [Example 90, (S)-N-((2-(3,5-difluorophenyl)-1-(3-(isoquinolin-7-yl)pyridin-2-yl)ethyl)carbamoyl)-2-methylbenzenesulfonamide] | 0.1 to 1 µM | > 100 µM | 0.23 µM
O=C(N[C@@H](Cc1cc(F)cc(F)c1)c1ncccc1-c1ccc2ccncc2c1)NS(=O)(=O)c1ccccc1Cl [Example 92, (S)-2-chloro-N-((2-(3,5-difluorophenyl)-1-(3-(isoquinolin-7-yl)pyridin-2-yl)ethyl)carbamoyl)benzenesulfonamide, 2 TFA] | 0.1 to 1 µM | > 100 µM | –
O=C(N[C@@H](Cc1ccccc1)c1nccn1-c1ccc(-c2ccoc2)cc1)NS(=O)(=O)c1ccccc1F [Example 64, (S)-2-fluoro-N-((1-(1-(4-(furan-3-yl)phenyl)-1H-imidazol-2-yl)-2-phenylethyl)carbamoyl)benzenesulfonamide] | < 0.1 µM | > 100 µM | –
Cc1ccccc1S(=O)(=O)NC(=O)N[C@@H](Cc1ccccc1)c1nccn1-c1ccc(N)cc1 [Example 42, (S)-N-((1-(1-(4-aminophenyl)-1H-imidazol-2-yl)-2-phenylethyl)carbamoyl)-2-methylbenzenesulfonamide] | < 0.1 µM | > 100 µM | 0.04 µM
O=C(NC(Cc1ccccc1)c1ncccc1-c1ccc2ccncc2c1)NS(=O)(=O)c1ccccc1Cl (stereo in doubt) [Example 108, (S)-2-chloro-N-((1-(3-(isoquinolin-7-yl)pyridin-2-yl)-2-phenylethyl)carbamoyl)benzenesulfonamide, 2 TFA] | > 1 µM | > 100 µM | 20 µM
Cc1ccccc1S(=O)(=O)NC(=O)N[C@@H](Cc1ccccc1)c1nccn1-c1cccc(-c2ccoc2)c1 [Example 65, (S)-N-((1-(1-(3-(furan-3-yl)phenyl)-1H-imidazol-2-yl)-2-phenylethyl)carbamoyl)-2-methylbenzenesulfonamide] | 0.1 to 1 µM | > 100 µM | –
Cc1ccccc1S(=O)(=O)NC(=O)N[C@@H](Cc1ccccc1)c1nccn1-c1ccc2ccccc2c1 [Example 69, (S)-2-methyl-N-((1-(1-(naphthalen-2-yl)-1H-imidazol-2-yl)-2-phenylethyl)carbamoyl)benzenesulfonamide] | < 0.1 µM | > 100 µM | 0.04 µM
COc1ccc(Cn2ccnc2[C@H](Cc2ccccc2)NC(=O)NS(=O)(=O)c2ccccc2Cl)cc1 [Example 41, (S)-2-chloro-N-((1-(1-(4-methoxybenzyl)-1H-imidazol-2-yl)-2-phenylethyl)carbamoyl)benzenesulfonamide] | 0.1 to 1 µM | > 33 µM | –
COC(=O)Nc1ccc(-n2ccnc2[C@H](Cc2ccccc2)NC(=O)NS(=O)(=O)C2CC2)cc1 [Example 53, (S)-methyl (4-(2-(1-(3-(cyclopropylsulfonyl)ureido)-2-phenylethyl)-1H-imidazol-1-yl)phenyl)carbamate] | 0.1 to 1 µM | > 100 µM | –
COC(=O)Nc1ccc(-n2ccnc2[C@H](Cc2ccccc2)NC(=O)NS(=O)(=O)c2cccc(Cl)c2)cc1 [Example 54, (S)-methyl (4-(2-(1-(3-((3-chlorophenyl)sulfonyl)ureido)-2-phenylethyl)-1H-imidazol-1-yl)phenyl)carbamate] | 0.1 to 1 µM | > 100 µM | 0.15 µM
Cc1ccccc1S(=O)(=O)NC(=O)NC(Cc1ccccc1)c1ncccc1Br (centres unmarked) [Example 116, N-((1-(3-bromopyridin-2-yl)-2-phenylethyl)carbamoyl)-2-methylbenzenesulfonamide, TFA] | > 1 µM | > 100 µM | –
